Earlier results in patent US20240238319A1, “CEREAL-BASED COMPOSITIONS WITH A MIX OF GALACTO-OLIGOSACCHARIDES/FRUCTO- OLIGOSACCHARIDES AND USES THEREOF FOR IMPROVING IRON ABSORPTION” (COMPAGNIE GERVAIS DANONE, priority 2021, published 2024).

Details: when providing at least 80% of the WHO recommended dietary allowance

SMILES: [Fe] [iron]
- increased risk of diarrhea: 15%
